d = 2'-deoxy (DNA); r = 2'-OH (RNA)
Legend:
[1] = test system: human colon cancer RKO cell line; experiment: Clonogenic assay in RKO cells; format: cell-based; settings: 6 hr exposure, colonies counted after 8 days, mean ± S.D., at least 3 experiments
Procedure: RKO cells were plated in 6-well plates at a density of 600 cells/well. On the following day, cells were transfected with ssiRNA/LF2000 complexes for 6 hr after which time, the growth medium was replaced. Similarly, FdU was added to wells for 6 hr followed by medium replacement. After 8 days, cell colonies were fixed with Trypan blue solution (75% methanol/25% acetic acid/0.25% trypan blue), washed, and air-dried before counting colonies >50 cells.

[2] = test system: thymidylate synthase (TS) protein; experiment: Immunoblot analysis of TS protein (free and ITC-bound), Odyssey quantitation; format: cell-based, human; settings: RKO cells, ssiRNA 10 nM, pre vs. 0 hr
[3] = test system: GC3/TK− cells; experiment: Cell proliferation (WST-1) in thymidine kinase-deficient GC3/TK− cells; format: cell-based, human; settings: 6 hr transfection, additional 5 days
Procedure: FIGS. 2A-B illustrate the effect of TK knockdown on the cytotoxicity of the FdU-modified ssiRNA. (A) RKO cells were transfected with 1 nM TK siRNA (lanes 3 and 4) or Mis-dU/dA (lane 5). After 6 hr, the medium was replaced with fresh medium. On the following day, cells were transfected with TS6-FdU/dA ssiRNA (1 nM) for 6 hr (lanes 2, 4, and 5) after which time, cells were harvested for immunoblot analysis. RKO cells were treated with 5-fluorouracil (5 nM) for 6 hr before harvesting (lane 6). (B) GC3/TK− cells were transfected with various concentrations of TS6-dU/dA or TS6-FdU/dA ssiRNA. After 6 hr, the medium was replaced and after an additional 5 days, cell proliferation was determined with the WST-1 assay;
The human colon cancer RKO cell line, originally obtained from ATCC, has been previously well-characterized and was maintained in RPMI-1640 (Invitrogen; Carlsbad, Calif.) with 10% (v/v) dialyzed fetal bovine serum at 37° C. in a humidified incubator with 5% CO2 (Reference 11). The thymidine kinase-deficient GC3/TK− cells were a gift from Dr. Janet Houghton (Reference 18). Cells were routinely authenticated by morphology and growth curve analysis. […]
RKO cells were plated in 96-well plates at a density of 800 cells/well. […] Cell proliferation/viability was quantified by the WST-1 assay (Roche; Indianapolis, Ind.).

[4] = test system: p53, Fas, cleaved PARP, γH2AX, p-ATM; experiment: Immunoblot of DNA damage and apoptosis signaling proteins, time course; format: cell-based, human; settings: RKO cells, ssiRNA 10 nM, 0-72 hr
Procedure: FIG. 5 illustrates time-dependent effects of FdU-containing ssiRNAs on protein expression. RKO cells were transfected with various TS6 ssiRNAs (10 nM). After 6 hr, the medium was replaced, and cells were harvested for immunoblot blot analysis at the following times: before39 transfection (pre) and 0, 24, 48, and 72 hr after transfection. Images shown are representative blots from at least 4 different experiments; and
Protein concentrations of cell lysates were determined using the DC Protein Assay (Bio-Rad; Hercules, Calif.). Equal amounts of protein (30 μg) from each cell lysate were resolved on SDS-PAGE using the method of Laemmli (Reference 19) and transferred onto 0.45 μm nitrocellulose membranes (Bio-Rad). Membranes were blocked and incubated overnight with primary antibodies at 4° C. The following antibodies were used in the experiments: anti-TS (Clone 4H4B1; Invitrogen), anti-TS (#5449; Cell Signaling; San Francisco, Calif.), anti-p21 Waf1/Cip1 (#2947; Cell Signaling), anti-p53 (#sc-126; Santa Cruz Biotechnology; Santa Cruz, Calif.), anti-PARP (#9542; Cell Signaling), anti-Fas (#4233; Cell Signaling), anti-phospho-histone H2A.X (Ser139) (#2577; Cell Signaling), anti-histone H2A.X (#7631; Cell Signaling), anti-phospho-ATM (pS1981; EPITOMICS Inc.; Burlingame, Calif.), anti-ATM (#A1106; Sigma), and anti-α-tubulin (EMD Biosciences; San Diego, Calif.). After multiple TBST washes (1×TBS, 0.1% Tween-20), membranes were incubated with corresponding horseradish peroxidase-conjugated secondary antibodies (Bio-Rad) for 1 hr at room temperature. Proteins were detected by the enhanced chemiluminescence method (SuperSignal West Pico substrate; Pierce; Rockford, Ill.). Quantitation of signal intensities was performed by densitometry on a Xerox scanner using NIH IMAGEJ software.

Substance: TS6-dU/dA: unmodified TS-targeted ssiRNA, 5 dU on 3′-end of sense strand, 5 dA on 3′-end of antisense strand; SEQ ID NO: 3 and 4 (sense GGAUAUUGUCAGUCUUUAGGUUUUU; antisense CCUAAAGACUGACAAUAUCCAAAAA; sense: sugars from the 5' end r20 d5, backbone and T or U not given here; antisense: sugars from the 5' end r20 d5, backbone not given here)
- IC50 [1]: 1.77 nM
- TS protein levels immediately after transfection [2]: minimally affected
- IC50 [3]: 51.4 ± 27.8 nM
- biomarkers of DNA damage, γH2AX and p-ATM [4]: little to no effect

— US9096853B2, “Modified siRNA molecules incorporating 5-fluoro-2′-deoxyuridine residues to enhance cytotoxicity” (U.S. Department of Veterans Affairs, priority 2012, dated 2015)
